According to patent US20160312240A1, “MODIFIED PYR/PYL RECEPTORS ACTIVATED BY ORTHOGONAL LIGANDS” (The Regents of the University of California, priority 2010, published 2016):

Key:
[1] = test system: PYL2 K64R,Y124H,M164I,V67I,V114I transgenic plants; experiment: Water loss from detached aerial rosettes; format: in vivo, Arabidopsis; conditions: 100 μM spray, approximately 16 hours pretreatment, FIG. 6A-C
Protocol: FIGS. 6A-6C. Fenhexamid reduces water loss in transgenic PYL2^K64R, Y124H, M164I, V67I, V114I expressing plants. Shown are three independent water loss experiments (FIGS. 6A-C) conducted on transgenic plants treated with control, 100 μM fenhexamid, or 100 μM ABA containing solutions. Plants were treated as described in the Examples section below and water loss from aerial rosettes was measured after detachment.
Transgenic or control (wild-type) plants were grown under a 16 hr light/8 hr dark cycle for 3 weeks and then treated with either 100 μM (+)-ABA, 100 μM fenhexamid, or control (containing 0.1% Tween-20, 0.1% DMSO). ABA treatments were conducted as a positive control. The plants were sprayed in the evening prior to conducting water loss experiments. The next morning, approximately 16 hours post-treatment, the above-ground rosettes of the experimental samples were collected and transferred to weighing dishes, 8 plants per measured sample, and maintained under ˜90-100 μEinstein/m^2 fluorescent light illumination. Four groups of eight plants were measured per time point at 20 min intervals. The experiments were repeated three times over the course of an eight-week interval. […]

[2] = test system: PYR/PYL-PP2C protein-protein interactions; experiment: Yeast competition screen: reduction of ABA-promoted PYR/PYL-PP2C interaction; format: cell-based; conditions: 100 nM ABA and 100 μM test chemical (1000-fold excess), yeast strains
Source text: To isolate PYR1 orthogonal receptors, a two-step process was used. First, a large collection of compounds was screened to identify compounds that weakly interact with receptors, defined as such by their ability to displace receptor-bound ABA in competition experiments. Once weak binders were identified, those with the most desirable properties from an end-use perspective were used as targets for iterative mutagenesis and selection schemes. Pre-selection of weak-binding ligands improves the frequency of isolating new receptor proteins, because fewer alterations of the ligand binding site are required to achieve molecular recognition. However, pre-selection is not a prerequisite for success.
Pre-selection of ligands. 74 structurally diverse agrochemicals were obtained, selected from a larger set of approximately 1500 commercially available agrochemicals. These 74 compounds were tested for their ability to reduce ABA-promoted PYR/PYL-PP2C protein-protein interactions in suitable yeast strains when added at 1000-fold excess relative to ABA (i.e. 100 nM ABA and 100 μM test chemical).

[3] = test system: PYR1 variants 27B-1, 27B-2, 27B-3, 27B-4, 27B-7, 27B-8 (Table 7); experiment: MAV99 growth selection, second round of shuffling (27B' library); format: cell-based, Arabidopsis; conditions: 20 μM fenhexamid; media lacking uracil; Table 7 variants
Protocol: To improve fenhexamid receptor sensitivity, DNA shuffling was employed using the same general experimental scheme outlined previously. Briefly, equimolar amounts of plasmid DNA for the fenhexamid receptors shown in Table 1 were pooled and combined with an equimolar amount of the ePCR1 library DNA. The pooled templates were utilized for DNA shuffling, which was conducted as described in Example 1. A library (named “27”) of ˜400,000 shuffled variants was prepared. The DNA for this library was introduced into the MAV99 pAD-HAB 1 yeast strain as described above and the resulting yeast cells collected and grown on FOA-containing plates to reduce constitutive mutants in the library, yielding the 27B′ library. The 27B′ library was plated onto media lacking uracil but containing 20 μM fenhexamid. ˜50 positives were selected from these plates and subsequently retested on media lacking […] to distinguish constitutive mutants (i.e., false positives) from those mutants that grow specifically in response to fenhexamid (i.e., true positives). The PYR1 coding sequences for the true positives were sequenced to yield the following series of fenhexamid-responsive PYR1 variants (Table 7): […]

[4] = target: T1, PYR1 K59R,Y120H,M158I triple mutant (Arabidopsis thaliana, UniProt O49686, K59R/M158I/Y120H); experiment: In vitro receptor (PP2C) assay, 2:1 receptor to phosphatase; format: biochemical
T1 construct: 6×-His (N); made in house
T1 sequence (O49686 whole entry K59R/Y120H/M158I): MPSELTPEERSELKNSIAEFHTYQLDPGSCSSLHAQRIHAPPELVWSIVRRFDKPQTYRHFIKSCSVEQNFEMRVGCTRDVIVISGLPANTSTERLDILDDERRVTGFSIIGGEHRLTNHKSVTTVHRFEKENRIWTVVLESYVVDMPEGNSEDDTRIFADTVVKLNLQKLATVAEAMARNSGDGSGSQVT
T1 sequence (Q9CAJ0 23-511, further chain): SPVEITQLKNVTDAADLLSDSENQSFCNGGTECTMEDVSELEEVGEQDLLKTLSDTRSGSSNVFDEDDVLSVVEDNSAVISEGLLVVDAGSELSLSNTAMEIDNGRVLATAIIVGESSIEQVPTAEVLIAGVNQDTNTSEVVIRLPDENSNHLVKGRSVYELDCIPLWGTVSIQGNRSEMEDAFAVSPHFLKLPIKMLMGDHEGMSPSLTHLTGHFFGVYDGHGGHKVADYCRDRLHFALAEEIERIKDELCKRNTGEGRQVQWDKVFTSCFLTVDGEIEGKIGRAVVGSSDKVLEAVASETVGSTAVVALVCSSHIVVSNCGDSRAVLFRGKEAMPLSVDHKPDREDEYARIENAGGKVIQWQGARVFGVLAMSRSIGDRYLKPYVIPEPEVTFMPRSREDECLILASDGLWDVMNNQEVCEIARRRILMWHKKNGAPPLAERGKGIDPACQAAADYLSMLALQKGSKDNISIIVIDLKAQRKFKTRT
Protocol: FIGS. 2A-2B. […] FIG. 2A. The mutants (listed on left side of panel) were constructed in pBD-PYR1 and transformed into Y190 pAD-HAB1 yeast cells. The transformants were then grown on increasing concentrations of fenhexamid and scored for responsiveness using X-gal staining, performed as described in Park et al., 2009. As shown, the mutations K59R, Y120H, and M1581 are necessary for fenhexamid response by 27C-2. FIG. 2B. In vitro characterization of the PYR1 K59R, Y120H, M158I mutant. Recombinant wild-type and mutant PYR1 proteins were produced as described previously and used in PP2C assays, as described previously (Park et al., 2009), with the exception that a 2:1 ratio of receptor to phosphatase was utilized.
To establish the relevance of the residues identified by our screens, we focused on a highly sensitive fenhexamid-responsive mutant identified, 27C-2, which contains 5 mutations (P42S, K59R, R74C, Y120H, and M158I; SEQ ID NO:171; see Table 8) in comparison to the wild-type PYR1 sequence. […] To probe the role of the 5 mutations in fenhexamid response, each of these residues were reverted back to the wild-type residue using site-directed mutagenesis.

CC1(C(=O)Nc2ccc(O)c(Cl)c2Cl)CCCCC1 [fenhexamid]
Water loss from detached rosettes [1]: sufficient to reduce water loss | ability to reduce ABA-promoted PYR/PYL-PP2C protein-protein interactions [2]: compete for ABA | Growth in response to fenhexamid (selection) [3]: fenhexamid-responsive | IC50 [4]: ~400 nM
